Reference: patent US9957270B2, “Fused pyrimidine-based hydroxamate derivatives” (Agency for Science, Technology and Research, priority 2014, dated 2018)

Tests used:
HDAC6 = molecular target: T1, HDAC6 (Homo sapiens, UniProt Q9UBN7); experiment: HDAC enzyme assay, recombinant HDAC6
T1 sequence (Q9UBN7 1-1215): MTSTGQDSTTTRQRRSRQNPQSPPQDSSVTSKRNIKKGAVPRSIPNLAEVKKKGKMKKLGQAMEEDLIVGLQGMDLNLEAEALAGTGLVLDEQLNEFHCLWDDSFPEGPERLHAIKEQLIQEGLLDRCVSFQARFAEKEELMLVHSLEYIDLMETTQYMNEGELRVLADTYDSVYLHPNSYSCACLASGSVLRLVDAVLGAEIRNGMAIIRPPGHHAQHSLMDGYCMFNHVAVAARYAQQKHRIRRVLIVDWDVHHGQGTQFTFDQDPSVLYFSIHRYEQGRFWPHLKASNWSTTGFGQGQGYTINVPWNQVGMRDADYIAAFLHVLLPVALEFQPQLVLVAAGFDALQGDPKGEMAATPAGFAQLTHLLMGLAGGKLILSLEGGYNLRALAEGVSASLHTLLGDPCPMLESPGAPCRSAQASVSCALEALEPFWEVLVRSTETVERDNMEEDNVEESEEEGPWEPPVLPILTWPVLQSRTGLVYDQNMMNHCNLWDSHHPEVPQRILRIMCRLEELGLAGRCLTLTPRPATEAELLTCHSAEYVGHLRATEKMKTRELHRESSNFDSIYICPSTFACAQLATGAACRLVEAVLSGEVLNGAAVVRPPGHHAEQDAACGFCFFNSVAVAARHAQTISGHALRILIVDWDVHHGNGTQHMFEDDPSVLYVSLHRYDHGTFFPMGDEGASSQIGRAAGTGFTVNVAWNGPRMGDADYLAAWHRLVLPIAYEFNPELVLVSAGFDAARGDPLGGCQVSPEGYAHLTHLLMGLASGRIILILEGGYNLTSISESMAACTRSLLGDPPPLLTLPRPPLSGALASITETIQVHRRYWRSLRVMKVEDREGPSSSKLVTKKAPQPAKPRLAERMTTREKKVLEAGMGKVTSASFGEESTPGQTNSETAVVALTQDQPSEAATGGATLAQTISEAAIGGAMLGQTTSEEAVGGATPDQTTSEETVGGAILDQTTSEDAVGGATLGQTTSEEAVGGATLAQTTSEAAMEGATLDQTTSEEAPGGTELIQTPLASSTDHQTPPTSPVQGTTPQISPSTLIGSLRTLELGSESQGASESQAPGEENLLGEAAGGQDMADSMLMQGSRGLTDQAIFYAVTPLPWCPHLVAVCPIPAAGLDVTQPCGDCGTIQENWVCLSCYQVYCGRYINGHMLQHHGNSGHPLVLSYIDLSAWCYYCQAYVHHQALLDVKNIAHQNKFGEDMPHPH

[1] = molecular target: HDAC (HeLa nuclear extracts); experiment: HDAC enzyme assay, HeLa nuclear extracts; conditions: read-out: In Vitro Enzymatic IC50 HDAC (HeLa)
K-562 = experiment: Anti-proliferative assay (cellular IC50), K-562; conditions: Homo sapiens, K562, 72 h, read-out: In Vitro Cellular IC50 K-562
COLO 205 = experiment: cells; conditions: Homo sapiens, COLO 205, 72 h, read-out: In Vitro Cellular IC50 COLO 205
MOLT-4 = experiment: Anti-proliferative assay (cellular IC50), MOLT-4; conditions: Homo sapiens, MOLT-4, 72 h, read-out: In Vitro Cellular IC50 MOLT-4
Description: (§1) Cells were cultivated at 37° C., 5% CO2 in media containing 10% FBS and 2 mM glutamine Cells were routinely monitored with MycoAlert™ PLUS Mycoplasma Detection Kit (Lonza Walkersville, Inc.) to make sure they were mycoplasma free. Antibiotics (100 U/mL of penicillin and 100 μg/mL of streptomycin) were only added to the media used for compound dilution and cells in 96-well assay plates.
(§2) For a typical screening experiment, cells (100 μL/well) are inoculated into 96 well microtiter plates at plating densities ranging from 2,000 to 30,000 cells/well depending on the doubling time of individual cell lines and assay linearity. […] Suspension cells are treated with test compounds immediately after cell inoculation.
(§3) Test compounds are serially diluted (3-fold or 4-fold, 8-concentration) using the same media and added to the plates (15 to 25 μL/well). After 72 h of cultivation, the plates are assayed for cell cytotoxicity/viability by using the following two methods.
(§4) Cells in plates are fixed with cold trichloroacetic acid (TCA) (50% w/v in DI water, 1/4 volume of the medium in each well), and incubated at 4° C. for 1 h (adherent cells) or 2 h (suspension cells). The plates are washed 5 times (tap water×3, DI water×2) and air-dried. SRB solution 0.4% (w/v) in 1% acetic acid is added to each well (60 μL/well) and the plates are incubated at room temperature for 30 min, then washed with 1% acetic acid solution 4 times, and air-dried.
(§5) The plates are added CellTiter-Glo® Reagent (95 μL/well) and read the luminescence on a BioTek H4 reader per manufacture's protocol.
(§6) The raw data are processed using BioTek's Software Gen5 (v2.03.01) to generate inhibitory IC50 values.

HDAC1 = HDAC1 (Homo sapiens, UniProt Q13547); experiment: HDAC enzyme assay, recombinant HDAC1
Sequence of HDAC1 (Q13547 whole entry): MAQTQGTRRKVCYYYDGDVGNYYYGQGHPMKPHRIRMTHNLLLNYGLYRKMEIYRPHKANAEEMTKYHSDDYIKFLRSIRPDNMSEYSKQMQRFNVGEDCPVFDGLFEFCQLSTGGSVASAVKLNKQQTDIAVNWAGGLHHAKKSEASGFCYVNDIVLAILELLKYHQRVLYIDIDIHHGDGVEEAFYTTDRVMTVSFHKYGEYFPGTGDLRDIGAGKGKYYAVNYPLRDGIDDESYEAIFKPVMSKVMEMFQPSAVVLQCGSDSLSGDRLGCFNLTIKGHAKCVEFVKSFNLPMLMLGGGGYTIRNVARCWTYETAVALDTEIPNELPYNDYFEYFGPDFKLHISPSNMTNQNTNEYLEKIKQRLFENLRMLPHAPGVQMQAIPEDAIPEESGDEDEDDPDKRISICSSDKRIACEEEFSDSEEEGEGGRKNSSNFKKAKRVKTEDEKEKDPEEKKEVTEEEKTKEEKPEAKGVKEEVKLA

HCT 116 = experiment: cells; conditions: Homo sapiens, HCT-116, 72 h, read-out: In Vitro Cellular IC50 HCT 116
Description: as §1, §2, §3, §4, §5, §6

MCF7 = experiment: Anti-proliferative assay (cellular IC50), MCF7; conditions: Homo sapiens, MCF7, 72 h, read-out: In Vitro Cellular IC50 MCF7
Description: as §1, §2, §3, §4, §5, §6

MV-4-11 = experiment: cells; conditions: Homo sapiens, MV4-11, 72 h, read-out: In Vitro Cellular IC50 MV-4-11
Description: as §1, §2, §3, §4, §5, §6

PC-3 = experiment: Anti-proliferative assay (cellular IC50), PC-3; conditions: Homo sapiens, PC-3, 72 h, read-out: In Vitro Cellular IC50 PC-3
Description: as §1, §2, §3, §4, §5, §6

PI3Kα = molecular target: T2, PI3Kα (Homo sapiens, UniProt P42336); experiment: Kinase enzyme assay (ADP-Glo), PI3Kα; format: biochemical; conditions: read-out: In Vitro Enzymatic IC50 PI3Kα
T2 construct: purchased Invitrogen, or BPS Bioscience Inc., or SignalChem PV4788 / 40620 / P27-18H
T2 sequence (P42336 whole entry): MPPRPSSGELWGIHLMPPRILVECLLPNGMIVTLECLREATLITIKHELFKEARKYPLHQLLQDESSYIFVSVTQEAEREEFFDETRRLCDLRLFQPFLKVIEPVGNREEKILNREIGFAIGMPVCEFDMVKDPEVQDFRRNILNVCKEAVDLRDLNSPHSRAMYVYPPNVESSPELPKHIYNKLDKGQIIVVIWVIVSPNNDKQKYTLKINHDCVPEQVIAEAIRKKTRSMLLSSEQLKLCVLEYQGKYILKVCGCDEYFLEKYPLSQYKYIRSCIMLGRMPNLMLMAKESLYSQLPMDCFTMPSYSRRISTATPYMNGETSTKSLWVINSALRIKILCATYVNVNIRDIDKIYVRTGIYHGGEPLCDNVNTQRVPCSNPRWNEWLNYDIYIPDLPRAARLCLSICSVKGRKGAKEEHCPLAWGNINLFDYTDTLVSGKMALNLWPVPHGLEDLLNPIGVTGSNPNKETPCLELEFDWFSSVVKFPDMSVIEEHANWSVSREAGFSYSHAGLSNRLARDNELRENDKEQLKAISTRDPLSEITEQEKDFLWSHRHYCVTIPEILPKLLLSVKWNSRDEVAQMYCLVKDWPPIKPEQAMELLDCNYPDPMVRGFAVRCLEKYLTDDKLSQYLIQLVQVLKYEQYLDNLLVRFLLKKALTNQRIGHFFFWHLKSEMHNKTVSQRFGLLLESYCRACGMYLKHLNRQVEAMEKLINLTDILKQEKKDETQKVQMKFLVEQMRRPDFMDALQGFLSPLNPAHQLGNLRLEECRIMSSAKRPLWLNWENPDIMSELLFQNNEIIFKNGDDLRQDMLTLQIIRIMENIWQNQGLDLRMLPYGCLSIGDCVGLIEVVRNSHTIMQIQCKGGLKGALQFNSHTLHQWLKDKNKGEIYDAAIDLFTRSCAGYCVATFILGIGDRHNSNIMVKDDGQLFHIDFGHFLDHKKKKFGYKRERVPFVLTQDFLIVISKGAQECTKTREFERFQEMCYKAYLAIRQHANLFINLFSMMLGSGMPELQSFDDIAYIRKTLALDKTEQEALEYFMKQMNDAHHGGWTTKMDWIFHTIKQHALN
T2 sequence (P27986 whole entry partner): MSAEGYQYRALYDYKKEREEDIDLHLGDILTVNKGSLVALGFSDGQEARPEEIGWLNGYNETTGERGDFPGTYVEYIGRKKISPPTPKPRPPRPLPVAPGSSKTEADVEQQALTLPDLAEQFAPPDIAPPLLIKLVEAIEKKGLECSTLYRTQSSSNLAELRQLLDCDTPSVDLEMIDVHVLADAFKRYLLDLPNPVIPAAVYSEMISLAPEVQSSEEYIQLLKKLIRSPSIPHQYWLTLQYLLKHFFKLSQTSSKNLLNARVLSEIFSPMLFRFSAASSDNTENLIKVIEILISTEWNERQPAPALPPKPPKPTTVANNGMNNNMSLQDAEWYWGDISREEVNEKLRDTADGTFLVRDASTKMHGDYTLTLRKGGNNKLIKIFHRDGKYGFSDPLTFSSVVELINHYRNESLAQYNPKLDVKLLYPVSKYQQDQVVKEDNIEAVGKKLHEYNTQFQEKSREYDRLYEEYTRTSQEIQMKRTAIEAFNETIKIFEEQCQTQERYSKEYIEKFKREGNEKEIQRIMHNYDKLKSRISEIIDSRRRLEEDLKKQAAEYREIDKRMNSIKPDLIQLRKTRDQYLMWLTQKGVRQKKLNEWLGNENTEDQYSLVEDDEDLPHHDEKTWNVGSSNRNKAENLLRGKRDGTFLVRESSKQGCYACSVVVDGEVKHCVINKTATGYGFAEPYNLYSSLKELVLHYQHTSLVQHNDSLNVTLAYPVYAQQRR

Row | Structure (SMILES) | IC50 (HDAC6) [µM] | IC50 [1] [µM] | IC50 (K-562) [µM] | IC50 (COLO 205) [µM] | IC50 (MOLT-4) [µM] | IC50 (HDAC1) [µM] | other results
1 | COc1ccc(-c2nc(N3CCOCC3)c3ncn(CCCCCCC(=O)NO)c3n2)cn1 [compound 52, N-hydroxy-7-(2-(6-methoxypyridin-3-yl)-6-morpholino-9H-purin-9-yl)heptanamide] | 0.01 to 0.1 | – | – | – | – | – | –
2 | Nc1ncc(-c2nc(N3CCOCC3)nc3c2ncn3CCCCCCC(=O)NO)cn1 [compound 3] | 0.01 to 0.1 | – | – | – | – | – | –
3 | CC(C)n1cnc2c(N3CCOCC3)nc(-c3cccc(OCCCC(=O)NO)c3)nc21 [compound 83, N-hydroxy-4-(3-(9-isopropyl-6-morpholino-9H-purin-2-yl)phenoxy)butanamide] | – | 0.1 to 1 | 2 to 10 | 2 to 10 | 0.5 to 2 | 0.1 to 1 | –
4 | O=C(CCCCCCn1cnc2c(N3CCC(O)CC3)nc(-c3cccc(CO)c3)nc21)NO [compound 105, N-hydroxy-7-(2-(3-(hydroxymethyl)phenyl)-6-(4-hydroxypiperidin-l-yl)-9H-purin-9-yl)heptanamide] | – | < 0.01 | – | – | < 0.5 | – | IC50 (HCT 116): 0.5 to 2 µM; IC50 (MCF7): 0.5 to 2 µM; IC50 (MV-4-11): < 0.5 µM
5 | CC(C)n1cnc2c(N3CCOCC3)nc(-c3cccc(OCCCCCCC(=O)NO)c3)nc21 [compound 84, N-hydroxy-7-(3-(9-isopropyl-6-morpholino-9H-purin-2-yl)phenoxy)heptanamide] | – | 0.01 to 0.1 | 2 to 10 | > 10 | 2 to 10 | 0.1 to 1 | –
6 | CC(C)n1cnc2c(N3CCOCC3)nc(-c3cccc(NC(=O)CCCCCCC(=O)NO)c3)nc21 [compound 85, N^1-hydroxy-N^8-(3-(9-isopropyl-6-morpholino-9H-purin-2-yl)phenyl)octanediamide] | – | < 0.01 | 0.5 to 2 | 0.5 to 2 | < 0.5 | 0.01 to 0.1 | IC50 (PC-3): 2 to 10 µM; IC50 (MCF7): 0.5 to 2 µM; IC50 (MV-4-11): 0.5 to 2 µM
7 | O=C(CCCCCCn1cnc2c(N3CCC(CO)CC3)nc(-c3cccc(CO)c3)nc21)NO [compound 103, N-hydroxy-7-(2-(3-(hydroxymethyl)phenyl)-6-(4-(hydroxymethyl)piperidin-1-yl)-9H-purin-9-yl)heptanamide] | – | < 0.01 | – | – | < 0.5 | – | IC50 (MCF7): 0.5 to 2 µM; IC50 (MV-4-11): < 0.5 µM
8 | CCn1c(CN2CCC(C(=O)NO)CC2)nc2c(N3CCOCC3)nc(-c3cnc(N)nc3)nc21 [compound 88, 1-((2-(2-aminopyrimidin-5-yl)-9-ethyl-6-morpholino-9H-purin-8-yl)methyl)-N-hydroxypiperidine-4-carboxamide] | – | – | > 10 | > 10 | 2 to 10 | 1 to 10 | –
9 | Nc1ncc(-c2nc(N3CCOCC3)c3ncn(CCCCCCC(=O)NO)c3n2)cn1 [compound 41, 7-(2-(2-aminopyrimidin-5-yl)-6-morpholino-9H-purin-9-yl)-N-hydroxyheptanamide] | < 0.01 | – | – | – | – | – | –
10 | CCn1c(CN(C)Cc2ccc(/C=C/C(=O)NO)cc2)nc2c(N3CCOCC3)nc(-c3cccc(NC(C)=O)c3)nc21 [compound 92, (E)-3-(4-((((2-(3-acetamidophenyl)-9-ethyl-6-morpholino-9H-purin-8-yl)methyl)(methyl)amino)methyl)phenyl)-N-hydroxyacrylamide] | 0.1 to 1 | 0.1 to 1 | 2 to 10 | 2 to 10 | 2 to 10 | 0.1 to 1 | IC50 (PI3Kα): 0.1 to 1 µM
11 | NC(=O)c1cccc(-c2nc(N3CCOCC3)c3ncn(CCCCCCC(=O)NO)c3n2)c1 [compound 49, 3-(9-(7-(hydroxyamino)-7-oxoheptyl)-6-morpholino-9H-purin-2-yl)benzamide] | < 0.01 | – | – | – | – | – | –
12 | CCn1c(CN(C)Cc2ccc(/C=C/C(=O)NO)cc2)nc2c(N3CCOCC3)nc(-c3cccc(C(N)=O)c3)nc21 [compound 91, (E)-3-(9-ethyl-8-(((4-(3-(hydroxyamino)-3-oxoprop-1-en-1-yl)benzyl)(methyl)amino)methyl)-6-morpholino-9H-purin-2-yl)benzamide] | – | 0.1 to 1 | 2 to 10 | 2 to 10 | 2 to 10 | 0.1 to 1 | IC50 (PI3Kα): 0.1 to 1 µM
13 | CCn1c(CN(C)Cc2ccc(/C=C/C(=O)NO)cc2)nc2c(N3CCOCC3)nc(-c3ccc(C(N)=O)cc3)nc21 [compound 90, (E)-4-(9-ethyl-8-(((4-(3-(hydroxyamino)-3-oxoprop-1-en-1-yl)benzyl)(methyl)amino)methyl)-6-morpholino-9H-purin-2-yl)benzamide] | – | 0.1 to 1 | 2 to 10 | 2 to 10 | 2 to 10 | 0.1 to 1 | IC50 (PI3Kα): 0.1 to 1 µM
14 | CC(C)n1c(N2CCC(C(=O)NO)CC2)nc2c(N3CCOCC3)nc(-c3cnc(N)nc3)nc21 [compound 86, 1-(2-(2-aminopyrimidin-5-yl)-9-isopropyl-6-morpholino-9H-purin-8-yl)-N-hydroxypiperidine-4-carboxamide] | – | 1 to 10 | 2 to 10 | 2 to 10 | 0.5 to 2 | 1 to 10 | IC50 (PI3Kα): 0.01 to 0.1 µM
15 | CC(C)n1cnc2c(-c3cccc(OCC(=O)NO)c3)nc(N3CCOCC3)nc21 [compound 24, N-hydroxy-2-(3-(9-isopropyl-2-morpholino-9H-purin-6-yl)phenoxy)acetamide] | – | – | – | – | – | 1 to 10 | IC50 (PI3Kα): 1 to 10 µM
16 | O=C(CCCCCCn1cnc2c(N3CCOCC3)nc(-c3cn[nH]c3)nc21)NO [compound 51, N-hydroxy-7-(6-morpholino-2-(1H-pyrazol-4-yl)-9H-purin-9-yl)heptanamide] | < 0.01 | – | – | – | – | – | –
17 | O=C(CCCCCCn1ccc2c(N3CCOCC3)nc(-c3cccc(O)c3)nc21)NO [compound 79, N-hydroxy-7-(2-(3-hydroxyphenyl)-4-morpholino-7H-pyrrolo[2,3-d]pyrimidin-7-yl)heptanamide] | < 0.01 | – | – | – | – | – | –
18 | CCN(CC)c1nc(-c2cccc(OCCCC(=O)NO)c2)c2ncn(C(C)C)c2n1 [compound 30, 4-(3-(2-(diethylamino)-9-isopropyl-9H-purin-6-yl)phenoxy)-N-hydroxybutanamide] | – | 0.1 to 1 | 2 to 10 | 2 to 10 | – | 1 to 10 | IC50 (PC-3): < 0.5 µM; IC50 (MCF7): 2 to 10 µM; IC50 (MV-4-11): < 0.5 µM
19 | COc1ncc(-c2nc(N3CCOCC3)c3ncn(CCCCCCC(=O)NO)c3n2)cn1 [compound 55, N-hydroxy-7-(2-(2-methoxypyrimidin-5-yl)-6-morpholino-9H-purin-9-yl)heptanamide] | 0.01 to 0.1 | – | – | – | – | – | –
20 | CCn1c(CNCCCCCC(=O)NO)nc2c(N3CCOCC3)nc(-c3cnc(N)nc3)nc21 [compound 87, 6-(((2-(2-aminopyrimidin-5-yl)-9-ethyl-6-morpholino-9H-purin-8-yl)methyl)amino)-N-hydroxyhexanamide] | 0.1 to 1 | 0.1 to 1 | > 10 | > 10 | 2 to 10 | 0.1 to 1 | IC50 (PI3Kα): 0.01 to 0.1 µM
21 | CC(=O)Nc1cccc(-c2nc(N3CCOCC3)c3ncn(CCCCCCC(=O)NO)c3n2)c1 [compound 48, 7-(2-(3-acetamidophenyl)-6-morpholino-9H-purin-9-yl)-N-hydroxyheptanamide] | < 0.01 | – | – | – | – | – | –
